In US20200000756A1, “NEOSTIGMINE COMBINATION AND COMPOSITIONS” (priority 2017, published 2020):
Entries after “also recorded” stand apart in the source; their conditions may differ.

Assay: Phase I single-blind study: single oral doses of neostigmine bromide with or without a single oral dose of ondansetron hydrochloride dihydrate
Type: in vivo
Conditions: six human subjects
Method: The ability of the 5HT3-antagonists for preventing the gastro-intestinal adverse effects of orally administered neostigmine bromide in humans was tested.
A Phase I study was conducted in six human subjects receiving a single oral dose of neostigmine bromide with or without a single oral dose of ondansetron hydrochloride dihydrate, as a representative 5HT3-antagonist. The study was a single center, single-blind.
To be enrolled in the study, participants (aged 18 to 60 years of age) were required, to refrain from consuming xanthine, quinine and caffeine containing beverages, and to refrain from prolonged intensive physical exercise during the study conduct. […] The key criteria for exclusion of a subject from enrollment in the study were as follows:
any clinically relevant acute or chronic disease which could interfere with the subjects' safety during the trial, expose them to undue risk, or interfere with the study objectives; history or presence of gastrointestinal, hepatic, or renal disease or other condition known to interfere with the absorption, distribution, metabolism or excretion of drugs; history of substance abuse, known drug addiction, or positive test for drugs of abuse or alcohol; history of drug or other significant allergy; ECG changes including QT interval prolongation and congenital long QT syndrome. […]

Cc1nccn1CC1CCc2c(c3ccccc3n2C)C1=O (racemic) [ondansetron, (±) 1,2,3,9-tetrahydro-9-methyl-3-[(2-methyl-1H-imidazol-1-yl)methyl]-4H-carbazol-4-one]
neostigmine dose reached before second intolerable dose (FID-2) on co-administration of ondansetron (neostigmine dose escalated together with oral ondansetron hydrochloride dihydrate 10 mg (8 mg base)): enabled subjects to reach neostigmine doses as high as or higher than the recommended efficacious dose for the treatment of MG
gastro-intestinal AEs of neostigmine on co-administration of ondansetron (single oral ondansetron hydrochloride dihydrate 10 mg (equivalent to 8 mg ondansetron base) with oral neostigmine bromide at the first intolerable dose and above): attenuated gastro-intestinal AEs reported with neostigmine alone; also recorded: prevented the occurrence of gastro-intestinal AEs
